The values that follow come from patent publication US10981926B2 (Janssen Pharmaceutica NV, priority 2016, dated 2021).

Usually TGI stands for the reduction of tumour growth relative to the control group. For orientation: IC50 means the point on the concentration scale where inhibition reaches its midpoint. Usually Ki stands for the dissociation constant of the complex between target and ligand, obtained from inhibition or displacement. Higher therefore signals a looser hold on the target. As usually defined, the inhibition is the percentage by which the read-out fell short of the control.

For one assay, the system named is LNCaP SRαF876L cells. Put plainly: Castrate Resistant Prostate Cancer Xenograft Study. Particulars: castrate SHO mice. The format is in vivo, mouse. The protocol: Castrate six to seven week old male SCID Hairless Outbred mice (SHO, Charles Rivers Laboratories) were used as the host strain for xenograft studies. LNCaP SRαF876L cells were cultured as 3-D spheroids and expanded prior to subcutaneous injection on the flank of the animals (supplied post castration). Briefly, 5 mls of cells in media+5 mls of cultrex were premixed prior to plating of 500 μl=2×10^5 cells per well of a 24-well plate. Plates were incubated @ 37° C. for 30 min before addition of complete media on top and returned to incubator for growth of 3-D colonies. After 7 days, media was removed, plates chilled and contents of each well, 500 μl cultrex and cells, injected into flank of a recipient mouse. Tumor volume (length×width2/2) was monitored weekly. When tumors reached an average volume of ˜200 mm^3, animals were randomized into treatment groups. During the treatment period tumor volume was monitored bi-weekly. At study end, tumor growth inhibition (TGI) was calculated: 100−(Treated/Control*100). At the termination of study tumors were collected and stored for further analyses.

Another assay deals with F876L-VP16 (Homo sapiens (Human), UniProt P10275, F877L). Nature of the assay: AR-VP16 DNA Binding Assay (VP16 F876L). To be noted: HepG2, antagonist mode, 1 nM R1881, 48 hours. The assay is classed as cell-based. The protocol: HepG2 cells were maintained in EMEM supplemented with 10% FBS. One day before transfection, the media was changed to EMEM with 10% CSS. T-150 flasks were transiently transfected using 120 μL Lipofectamine 2000 (Life Technologies), 24.5 μg AR-VP16 or F876L-VP16 (expression vector) and 49 μg 4×ARE-Luciferase (reporter vector) in OptiMEM and the flasks were incubated overnight. Cells were then trypsinized, counted and resuspended at 500,000 cells/mL. For agonist mode, the compounds were serially diluted and 50 μL of the compound was added per well. 50 μL of the cells were added to each well and incubated for 48 hours. For antagonist mode, a final concentration of 90 pM (VP16 AR) or 1 nM (VP16 F876L) R1881 was added to the plate and incubated for 48 hours. The plates were then assayed using SteadyGlo and read on the Envision. Percent Stimulation and Inhibition were determined and analyzed using GraphPad Prism.
F876L-VP16, sequence (P10275 whole entry F877L): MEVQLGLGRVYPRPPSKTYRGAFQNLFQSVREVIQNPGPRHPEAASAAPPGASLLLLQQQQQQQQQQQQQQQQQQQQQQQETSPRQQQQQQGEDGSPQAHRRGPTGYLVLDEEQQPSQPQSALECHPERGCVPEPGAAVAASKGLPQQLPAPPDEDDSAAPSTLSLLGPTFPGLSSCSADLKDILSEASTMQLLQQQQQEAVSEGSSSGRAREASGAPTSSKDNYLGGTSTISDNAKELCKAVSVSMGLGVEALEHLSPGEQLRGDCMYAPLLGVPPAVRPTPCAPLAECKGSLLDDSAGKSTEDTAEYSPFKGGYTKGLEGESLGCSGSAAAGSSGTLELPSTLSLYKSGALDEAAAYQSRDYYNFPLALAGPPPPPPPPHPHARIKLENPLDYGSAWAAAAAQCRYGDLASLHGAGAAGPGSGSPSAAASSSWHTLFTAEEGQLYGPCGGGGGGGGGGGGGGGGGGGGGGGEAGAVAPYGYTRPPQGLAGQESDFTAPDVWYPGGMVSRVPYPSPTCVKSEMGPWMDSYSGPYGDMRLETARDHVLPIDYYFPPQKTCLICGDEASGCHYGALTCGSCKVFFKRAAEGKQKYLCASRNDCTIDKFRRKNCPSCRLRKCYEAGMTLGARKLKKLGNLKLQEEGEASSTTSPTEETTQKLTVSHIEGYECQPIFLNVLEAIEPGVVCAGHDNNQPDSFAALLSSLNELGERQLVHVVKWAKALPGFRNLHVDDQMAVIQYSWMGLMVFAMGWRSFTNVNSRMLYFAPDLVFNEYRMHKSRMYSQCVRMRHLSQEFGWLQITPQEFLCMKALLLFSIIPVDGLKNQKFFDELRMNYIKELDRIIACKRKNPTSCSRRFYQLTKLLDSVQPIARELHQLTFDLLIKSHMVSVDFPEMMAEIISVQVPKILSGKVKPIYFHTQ

The target of another assay is AR (human) (Homo sapiens (Human), UniProt P10275, T878A). Put plainly: Radioligand binding to AR. To be noted: [3H]methyltrienolone, LNCaP cells (cytosol). The procedure:
Radioligand binding assays were performed with the cell extracts and ligands as detailed below. Complete methodology is contained within the cited publications. Kd values were determined by Non-Specific Incubation Detection Method.
AR (human) (agonist radioligand) LNCaP cells (cytosol)
[^3H]methyltrienolone 1 nM 0.8 nM mibolerone (1 μM) 24 h 4° C. Scintillation counting.
The results are expressed as a percent of control specific binding measured specific binding*100 control specific binding and as a percent inhibition of control specific binding 100-(measured specific binding*100) control specific binding obtained in the presence of compound.
The IC50 values (concentration causing a half-maximal inhibition of control specific binding) and Hill coefficients (nH) were determined by non-linear regression analysis of the competition curves generated with mean replicate values using Hill equation curve fitting. Y=D+[A−D] 1+(C/C50)nH
wherein Y=specific binding, A=left asymptote of the curve, D=right asymptote of the curve, C=compound concentration, C50=IC50, and nH=slope factor. […]
The inhibition constants (Ki) were calculated using the Cheng Prusoff equation: Ki=[…]
Radioligand binding inhibition and affinity calculations were determined using [^3H]-methyltrienolone, [^3H]-dexamethasone and [^3H]-estradiol for AR, GR and ER, respectively. […]

Another assay deals with LNCaP WT. Nature of the assay: LNCaP Proliferation Assay (LNCaP WT). The assay is classed as cell-based. Particulars: Homo sapiens, 96 h, 4 days, CellTiter-Glo, normalized to 0.1 nM R1881 stimulation. The procedure: LNCaP cells were expanded in RPMI 10% FBS in T150 flasks. The cells were dislodged with 0.25% Trypsin, washed in complete media, centrifuged (300 g, 3 min), and the supernatant aspirated. The cells were resuspended in RPMI phenol-red free media with 1% charcoal-stripped serum (CSS) and counted using a ViCELL (Beckman-Coulter). 7500 cells were added to each well of a white optical bottom 384-well plate and incubated for 2 days at 37° C. 5% CO2. Compound dilutions were prepared in RPMI CSS using 50 mM stock solutions and added to the cells either alone (agonist mode) or in combination with 0.1 nM R1881 (antagonist mode). The plates were incubated for 4 days, followed by addition of CellTiter-Glo Luminescent Cell Viability kit reagent (Promega). The plates were placed on a shaker at 3000 rpm for 10 minutes and then read on an EnVision plate reader (Perkin Elmer) using Luminescence assay default settings. The data was analyzed, normalized to 0.1 nM R1881 stimulation, and plotted in GraphPad Prism.
In general terms: Cellular ATP, detected with luciferase, serves as a proxy for viable cell number.

The target of another assay is AR in LNCaP cells (Homo sapiens (Human), UniProt P10275, T878A). Nature of the assay: LNCaP AR Localization Assay. To be noted: 4 h, read-out: Inhibition of translocation. The assay is classed as cell-based. The protocol: LNCaP cells were expanded in RPMI 10% FBS in T150 flasks. The cells were dislodged with 0.25% Trypsin, washed in complete media, centrifuged (300 g, 3 min), and the supernatant aspirated. The cells were resuspended in RPMI phenol-red free media with 1% charcoal-stripped serum (CSS) and counted using a ViCELL (Beckman-Coulter). Three million cells in 7 mL of RPMI CSS were seeded into 100 mm dishes and incubated overnight at 37° C. 5% CO2. The following morning, compound dilutions were prepared in RPMI CSS using 50 mM stock solutions and added directly to the cells to obtain the final concentration of 10 μM. The dishes were placed into the incubator for 4 h. After 4 h, cell scrapers were used to dislodge the cells and the media/cell solution was centrifuged, supernatant aspirated, and then washed with Cell Wash Buffer (Protein Simple). The pellets were stored at −80° C. or processed immediately using the Subcellular Protein Fractionation Kit for Cultured Cells (Thermo-Fisher). The fractions obtained from this kit were stored at −80° C. Later, the samples' protein concentration was determined using the BCA Assay Kit (Thermo-Fisher) and the fraction lysates normalized to 0.6 mg/mL. The lysates were run on the Wes Simple Western platform (ProteinSimple). The data was analyzed, normalized to the total AR, and plotted in GraphPad Prism. […]
AR in LNCaP cells, sequence (P10275 whole entry T878A): as the sequence (P10275 whole entry F877L) above, with L877F, T878A counted along it

AR (human), sequence (P10275 whole entry T878A): as the sequence (P10275 whole entry F877L) above, with L877F, T878A counted along it

Consider `N#Cc1ncc(N2C(=O)C3(CCC3)N(c3ccc(OC4CCNCC4)nc3)C2=S)cc1C(F)(F)F` [Cpd 43, 5-[5-oxo-8-[6-(4-piperidyloxy)-3-pyridyl]-7-thioxo-6,8-diazaspiro[3.4]octan-6-yl]-3-(trifluoromethyl)pyridine-2-carbonitrile], for which the TGI is reported as 91% (n = 9) in the assay with LNCaP SRαF876L cells (30 mg/kg) and 87% (n = 10) in the assay on LNCaP SRαF876L cells (50 mg/kg). Moreover, the values for the IC50 at F876L-VP16, on AR (human) and in the assay on LNCaP WT were 0.015 µM, 0.0069 µM and 0.435 µM, respectively. Besides, on AR (human) (Cheng Prusoff), affinity was put at a Ki of 0.003 µM. The inhibition at 10 µM on AR in LNCaP cells stood at 50%.
